In series [1] the test system is human immunoglobulin G (IgG) antibodies. Nature of the series: Relative binding activity to human IgG antibodies by surface plasmon resonance on immobilized sensor chip. The conditions noted are these: for Relative binding activity: SPR (Biacore 3000, CM5 chip), 3,000 nM human IgG for 10 minutes at 25° C., relative to the cyclic peptide of Comparative Example 1 regarded as 1. On the procedure:
A commercially available CM5 (carboxymethyl dextran introduction-type, manufactured by GE Healthcare) sensor chip was set in Biacore 3000 (Biacore is a registered trademark) as a surface plasmon resonance device manufactured by GE Healthcare, a 4-(2-hydroxyethyl)-1-piperazineethanesulfonic acid (HEPES) buffer solution (20 mM HEPES-HCl, 150 mM NaCl, pH 7.4) for surface plasmon resonance (SPR) was stabilized at a flow rate of 10 μL/min, and 70 μL of an aqueous mixed solution of 0.2 M 1-(3-Dimethylaminopropyl)-3-ethylcarbodiimide (EDC) and […] of N-Hydroxysuccinimide (NHS) were injected thereinto. Thereafter, 100 μL of a sample solution of the cyclic peptide 1, which was diluted with a HEPES buffer solution at 0.2 g/L and treated with a polytetrafluoroethylene (PTFE) filter (manufactured by Advantec MFS, Inc.) having a diameter of 0.20 μm, was supplied to the sensor chip. Then, a blocking treatment was then performed on the sample solution by using an aqueous ethanolamine solution, and the sensor chip was washed with an aqueous sodium hydroxide solution, thereby performing immobilization. Likewise, 70 μL of an aqueous mixed solution of 0.2 M EDC and 0.04 M NHS was added to the same sensor chip without immobilizing the sample in another flow channel of the sensor chip, and then the blocking treatment and the washing treatment were performed. Hereinafter, the obtained immobilized sensor chip will be referred to as “immobilized sensor chip A”.
At 25° C., 3,000 nM of human immunoglobulin G (IgG) antibodies were added for 10 minutes to the immobilized sensor chip A prepared in (2) described above. Then, the antibody binding amount in the flow channel in which the cyclic peptide was immobilized immediately after the addition and in the flow channel in which the cyclic peptide was not immobilized was measured. From the difference in the antibody binding amount between the flow channel in which the cyclic peptide was immobilized and the flow channel in which the cyclic peptide was not immobilized and the amount of the immobilized cyclic peptide, the activity of the cyclic peptide was calculated. Furthermore, by regarding the activity of a cyclic peptide 5 in Comparative Example 1 as 1, the relative binding activity with respect to the human IgG antibodies was calculated.
Background: In SPR one partner is held on a chip, and binding of the other changes the refractive index at the surface.

Series [2] is described as follows: Chemical resistance: rate of change in antibody binding amount of immobilized support before and after alkali treatment. Type of series: physicochemical. Particulars: for Chemical resistance (rate of change in the binding amount): peptide-immobilized HiTrap support, human IgG binding amount at 10% leak, before and after 0.05 M aqueous NaOH for 6 hours at 25° C.; for chemical resistance (in words): summary wording of the chemical resistance evaluation. The method, then:
1 mL of HiTrap NHS-activated HP Columns (coupling columns for ligand immobilization, manufactured by GE Healthcare) (HITRAP is a registered trademark) was reacted with 1 mL of 10 mg/mL cyclic peptide solution, which was prepared by dissolving the cyclic peptide 1 in an immobilization buffer (10% DMSO in 200 mM NaHCO3, 500 mM NaCl, pH 8.3), for 1 hour at 25° C. The reaction product was blocked by an aqueous ethanolamine solution and washed, thereby obtaining a cyclic peptide 1-immobilized support. Hereinafter, the obtained immobilized support will be referred to as “immobilized support A”.
The immobilized support A prepared in (4) described above was connected to a chromatography system AKTA avant 25 (manufactured by GE Healthcare) (AKTAAVANT is a registered trademark), and the antibody binding amount was measured. The columns were equilibrated using an equilibration solution (20 mM phosphoric acid buffer, 150 mM NaCl, pH 7.4), and then 20 mL of a 5 mg/mL human IgG antibody standard buffer solution (20 mM phosphoric acid buffer, 150 mM NaCl, pH 7.4) was injected thereinto at a flow rate of 0.21 mL/min. Thereafter, the columns were washed with 5 mL of a postloading wash solution (20 mM phosphoric acid buffer, 150 mM NaCl, pH 7.4) caused to flow at the same flow rate and then washed with 5 mL of a pre-elution wash solution (20 mM phosphoric acid buffer, 1 M NaCl, pH 7.4) at the same flow rate. Then, 5 mL of an elution solution (100 mM citric acid buffer, pH 3.2) was caused to flow at the same flow rate. Subsequently, 5 mL of a cleaning in place (CIP) solution (0.1 M sodium hydroxide) was caused to flow at the same flow rate, and then 5 mL of a reequilibration solution (20 mM phosphoric acid buffer, 150 mM NaCl, pH 7.4) was caused to flow at the same flow rate. At this time, by using an immunoglobulin G (IgG) elution peak obtained by monitoring absorbance at 280 nm, the amount of antibodies binding to the support until 10% of the antibody stock solution leaked out of the support was measured as the antibody binding amount. Then, the immobilized support A was filled with a 0.05 M aqueous NaOH solution for 6 hours at 25° C. and left to stand, the antibody binding amount of the support was then measured in the same manner, and a rate of change in the binding amount was calculated from the antibody binding amount before and after the alkali treatment.

Starred links: 1 amine or outer side, 2 acyl side, 3 side chain; linkers in the order of their positions; H or OH if unused. Positions of bridges follow the written chain, without caps; N, C: chain ends. Non-standard residues stand in square brackets, D forms with d. Primed or numbered codes have the meaning given here. No end group written: not given here. Bpg″ = L-bishomopropargylglycine residue, C#CCCC[C@H](N[*:1])C(=O)[*:2]; Lys(N3) = [N-]=[N+]=NCCCC[C@H](N)C(=O)O; Orn(N3) = [N-]=[N+]=NCCC[C@H](N)C(=O)O; Aha = [N-]=[N+]=NCC[C@H](N)C(=O)O; Bpg = L-bishomopropargylglycine; Hpra = C#CCC[C@H](N)C(=O)O; Pra = C#CC[C@H](N)C(=O)O

“Asp-[Abu(N3)]-Ala-Tyr-His-Arg-Gly-Glu-Leu-Val-Trp-[Pra]-Thr-Lys-Lys (D[Aha]AYHRGELVW[Pra]TKK; triazole 2-12) [Cyclic peptide 6, [Abu(N3)] and [Pra] cross-linked through a triazole bond]”: the Relative binding activity result in series [1] was “B (The relative binding activity was higher than 400% and equal to or lower than 800% of the binding activity of the cyclic peptide 5)”. The “Chemical resistance (rate of change in the binding amount)” value in series [2] is “B (The rate of change in the binding amount was higher than 80% and equal to or lower than 90%)”.
Take “Asp-[Abu(N3)]-Ala-Tyr-His-Leu-Gly-Glu-Leu-Val-Trp-[Bpg]-Thr-Lys-Lys (D[Aha]AYHLGELVW[Bpg]TKK; triazole 2-12) [Cyclic peptide 13, [Abu(N3)] and [Bpg] cross-linked through a triazole bond]”: the Relative binding activity entry in series [1] is “B (The relative binding activity was higher than 400% and equal to or lower than 800% of the binding activity of the cyclic peptide 5)”. The “Chemical resistance (rate of change in the binding amount)” value in series [2] is reported as “A (The rate of change in the binding amount was higher than 90%)”.
Regarding “Asp-[Abu(N3)]-Ala-Tyr-His-Leu-Gly-Glu-Leu-Val-Trp-[Hpg]-Thr-Lys-Lys (D[Aha]AYHLGELVW[Hpra]TKK; triazole 2-12) [Cyclic peptide 11, [Abu(N3)] and [Hpg] cross-linked through a triazole bond]”, the Relative binding activity result in series [1] is given as “A (The relative binding activity was higher than 800% of the binding activity of the cyclic peptide 5)”. The “Chemical resistance (rate of change in the binding amount)” value in series [2] is listed as “A (The rate of change in the binding amount was higher than 90%)”.
For “Asp-[Abu(N3)]-Ala-Tyr-His-Leu-Gly-Glu-Leu-Val-Trp-[Pra]-Thr-Lys-Lys (D[Aha]AYHLGELVW[Pra]TKK; triazole 2-12) [Cyclic peptide 7, [Abu(N3)] and [Pra] cross-linked through a triazole bond]”, in series [1], the Relative binding activity result is “B (The relative binding activity was higher than 400% and equal to or lower than 800% of the binding activity of the cyclic peptide 5)”. For the same substance, the “Chemical resistance (rate of change in the binding amount)” value in series [2] is listed as “A (The rate of change in the binding amount was higher than 90%)”.
With “Asp-[Bpg]-Ala-Tyr-His-Leu-Gly-Glu-Leu-Val-Trp-[Lys(N3)]-Thr-Lys-Lys (D[Bpg]AYHLGELVW[Lys(N3)]TKK; triazole 2-12) [Cyclic peptide 3, [Bpg] and [Lys(N3)] cross-linked through a triazole bond]”, the Relative binding activity entry in series [1] is given as “A (The relative binding activity was higher than 800% of the binding activity of the cyclic peptide 5)”. Moreover, the “Chemical resistance (rate of change in the binding amount)” value in series [2] is “A (The rate of change in the binding amount was higher than 90%)”.
For the substance “Asp-[Bpg]-Ala-Tyr-His-Leu-Gly-Glu-Leu-Val-Trp-[Nva(N3)]-Thr-Lys-Lys (D[Bpg″]AYHLGELVW[Orn(N3)]TKK; triazole 2-12; also: Xaa2 derived from gamma-azido-L-homoalanine) [Cyclic peptide 14, [Bpg] and [Nva(N3)] cross-linked through a triazole bond]”, the Relative binding activity result in series [1] is “B (The relative binding activity was higher than 400% and equal to or lower than 800% of the binding activity of the cyclic peptide 5)”; in series [1] (listed as Example 14), “C or a higher grade”. For the same substance, in series [2], the “Chemical resistance (rate of change in the binding amount)” value is on record as “A (The rate of change in the binding amount was higher than 90%)”.
As to “Asp-[Cys]-Ala-Tyr-His-Arg-Gly-Glu-Leu-Val-Trp-[Cys]-Thr-Lys-Lys (DCAYHRGELVWCTKK; disulfide 2-12) [Cyclic peptide 19, two [Cys]'s cross-linked through a disulfide bond; comparative, reference compound]”, the Relative binding activity result in series [1] is listed as “A (The relative binding activity was higher than 800% of the binding activity of the cyclic peptide 5)”. Further, in series [2], the “Chemical resistance (rate of change in the binding amount)” value was “E (The rate of change in the binding amount was equal to or lower than 50%)” and the “chemical resistance (in words)” value is listed as “poor”.
As to “Asp-[Glu]-Ala-Tyr-His-Leu-Gly-Glu-Leu-Val-Trp-[Lys]-Thr-Lys-Lys [Cyclic peptide 18, reference compound]”, in series [1], the Relative binding activity result is “E (The relative binding activity was equal to or lower than 100% of the binding activity of the cyclic peptide 5)”. Also, in series [1] (summary wording of the relative binding activity evaluation, listed as Comparative Example 2), the “antibody binding properties (in words)” value was “excellent and poor”. Also, the “Chemical resistance (rate of change in the binding amount)” value in series [2] was “B (The rate of change in the binding amount was higher than 80% and equal to or lower than 90%)”. In series [2] (listed as Comparative Example 2), the “chemical resistance (in words)” value is “poor and sufficient”.
As to “Asp-[Hpg]-Ala-Tyr-His-Leu-Gly-Glu-Leu-Val-Trp-[Abu(N3)]-Thr-Lys-Lys (D[Hpra]AYHLGELVW[Aha]TKK; triazole 2-12) [Cyclic peptide 12, [Hpg] and [Abu(N3)] cross-linked through a triazole bond]”, the Relative binding activity result in series [1] is given as “A (The relative binding activity was higher than 800% of the binding activity of the cyclic peptide 5)”. Further, in series [2], the “Chemical resistance (rate of change in the binding amount)” value was “A (The rate of change in the binding amount was higher than 90%)”.
“Asp-[Hpg]-Ala-Tyr-His-Leu-Gly-Glu-Leu-Val-Trp-[Nva(N3)]-Thr-Lys-Lys (D[Hpra]AYHLGELVW[Orn(N3)]TKK; triazole 2-12) [Cyclic peptide 15, [Hpg] and [Nva(N3)] cross-linked through a triazole bond]”: the Relative binding activity entry in series [1] was “B (The relative binding activity was higher than 400% and equal to or lower than 800% of the binding activity of the cyclic peptide 5)”. The “Chemical resistance (rate of change in the binding amount)” value in series [2] is “A (The rate of change in the binding amount was higher than 90%)”.
As to “Asp-[Lys(N3)]-Ala-Tyr-His-Leu-Gly-Glu-Leu-Val-Trp-[Hpg]-Thr-Lys-Lys (D[Lys(N3)]AYHLGELVW[Hpra]TKK; triazole 2-12) [Cyclic peptide 8, [Lys(N3)] and [Hpg] cross-linked through a triazole bond]”, the Relative binding activity entry in series [1] was “B (The relative binding activity was higher than 400% and equal to or lower than 800% of the binding activity of the cyclic peptide 5)”. Further, the “Chemical resistance (rate of change in the binding amount)” value in series [2] is on record as “A (The rate of change in the binding amount was higher than 90%)”.
As to “Asp-[Lys(N3)]-Ala-Tyr-His-Leu-Gly-Glu-Leu-Val-Trp-[Pra]-Thr-Lys-Lys (D[Lys(N3)]AYHLGELVW[Pra]TKK; triazole 2-12) [Cyclic peptide 10, [Lys(N3)] and [Pra] cross-linked through a triazole bond]”, in series [1], the Relative binding activity entry was “C (The relative binding activity was higher than 200% and equal to or lower than 400% of the binding activity of the cyclic peptide 5)”. In addition, the “Chemical resistance (rate of change in the binding amount)” value in series [2] was “A (The rate of change in the binding amount was higher than 90%)”.
